Test results reported in ChEMBL document CHEMBL3352545, “Two new unusual monoterpene acid glycosides from Acacia cyclops with potential cytotoxic activity” (2014).

Experiments:
OVCAR = assay: Growth inhibition of human OVCAR cells at 50 ug/mL by MTT assay; type: functional; details: read-out: GI
MCF7 = assay: Growth inhibition of human MCF7 cells at 50 ug/mL by MTT assay; type: functional; details: read-out: GI

Row | SMILES | inhibition of growth at 50 µg/mL (OVCAR) [%] | inhibition of growth at 50 µg/mL (MCF7) [%]
1 | C=CC(C)(CC/C=C(\C)C(=O)O)O[C@@H]1O[C@H](CO)[C@@H](OC(C)(C=C)CC/C=C(/C)C(=O)O)[C@H](O)[C@H]1O (some centres undefined) | 77.7 | 98.9
2 | C=CC(C)(CC/C=C(\C)C(=O)O)O[C@@H]1O[C@@H](C)[C@H](OC(C)(C=C)CC/C=C(\C)C(=O)O)[C@@H](O)[C@H]1O (some centres undefined) | 66.5 | 68.2
